This note sets out measurements from PubChem BioAssay (NCI).

Common to all, as to assay: DTP human tumour cell line panel, 48 h
Assay [1] deals with MCF7 breast.
In assay [2] the test system is A549 NSCLC.
Assay [3] concerns NCI/ADR-RES ovarian.
Assay [4] concerns U251 CNS.
The test system of assay [5] is HCC-2998 colon.
For assay [6], the system named is SNB-19 CNS.
Assay [7] concerns CAKI-1 renal.
Assay [8] deals with HT29 colon.
Assay [9] deals with OVCAR-3 ovarian.
The subject of assay [10] is A498 renal.

Each structure is given as a SMILES string.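 96-well plates; 48 h exposure; 5 concentrations. Endpoints by linear interpolation between flanking doses. Not reached: highest tested concentration assigned. GI50: concentration for 50% inhibition of growth. TGI: concentration producing complete growth inhibition.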

In general, TGI refers to the concentration at which net growth stops. The GI50 is the concentration that inhibits growth by half.

Consider `COc1cc([N+](=O)[O-])c(S(=O)(=O)O)cc1-n1nc(-c2ccccc2)n[n+]1-c1cc(S(=O)(=O)[O-])c([N+](=O)[O-])cc1OC`, for which the TGI in assay [1], in [2], in assay [3], in assay [4], in [5] and in assay [6] was more than 100 µM in each case. Moreover, the TGI in assay [7], in assay [8] and in [9] was more than 100 µM each time.
With `CCCN(CCC)c1ccc(C=O)c(OC)c1`, the GI50 in [1] is 19.1 µM; in assay [2] it was 28.3 µM; in [10], 1.37 µM; in [3], 28.9 µM; in [4], 28.1 µM; in assay [5], 24.9 µM. Also, the GI50 in assay [6] was 29.4 µM; in assay [7] it was 22.7 µM; in assay [8], 17 µM; in assay [9], 15.1 µM. The TGI was 81.3 µM in assay [1]; more than 100 µM in assay [2]; 7.79 µM in assay [10]; more than 100 µM in [3]; more than 100 µM in assay [4]; more than 100 µM in assay [5]. Besides, the TGI in assay [6] is more than 100 µM; in [7] it was 80.4 µM; in assay [8], 70.8 µM; in assay [9], 33.9 µM.
Consider `CC(=O)OC1C(O)COC(Oc2c(C)c3c4c(c2O)[C@@H](C)CC[C@@H]4[C@@H](C)C[C@H]3C=C(C)C)C1O` (some centres not stated), for which the GI50 in assay [1] was 17.2 µM; in [2] it was 16 µM; in [10] it was 16.6 µM; in assay [3], 15.4 µM; in assay [4], 18 µM; in assay [5], 18.7 µM. The GI50 was 23.4 µM in assay [6], 16.9 µM in assay [7] and 13.5 µM in [9]. The TGI in [1] was more than 100 µM; in assay [2], 40.3 µM; in assay [10] it was 32.7 µM; in assay [3] it was 32.5 µM; in assay [4] it was 35 µM; in assay [5] it was 43.6 µM. Besides, the figures for the TGI in [6], in assay [7] and in [9] were 49.6 µM, 32.2 µM and 28.2 µM, respectively.
With `CCCCn1c(=O)c(/C=C/C(=O)/C=C/c2ccc(O)c(OC)c2)cc2ccc(Cl)cc21`, the GI50 was 1.88 µM in assay [1]; 1.72 µM in assay [2]; 2.9 µM in assay [3]; 1.59 µM in [4]; 2.05 µM in assay [5]; 1.62 µM in assay [6]. The GI50 is 2.16 µM in assay [7], 0.846 µM in assay [8] and 1.7 µM in assay [9]. Further, the TGI amounted to 10.8 µM in assay [1]; 4.84 µM in [2]; 10.7 µM in assay [3]; 3.08 µM in assay [4]; 3.54 µM in [5]; 3.3 µM in assay [6]. Also, the TGI in assay [7] is 3.91 µM; in assay [8], 2.57 µM; in assay [9], 3.24 µM.
For `Cn1c(-c2c(N)n(Cc3ccc(Cl)cc3)c3nc(C#N)c(C#N)nc23)nc2ccccc21`, the GI50 in assay [1] was 3.94 µM; in [2], 5.02 µM; in assay [3] it was 2.36 µM; in [4] it was 3.76 µM; in assay [5] it was 1.08 µM; in assay [6] it was 12.3 µM. The GI50 in assay [7] is 7.15 µM; in assay [9] it was 1.37 µM. In addition, the TGI in [1] is more than 50 µM; in [2], 19.8 µM; in [3], 10.8 µM; in assay [4], 13 µM; in [5], 3.57 µM; in assay [6] it was 46.5 µM. Further, the TGI turned out to be 18.7 µM in assay [7] and 6.2 µM in assay [9].
With `c1ccc(CN2CCC3(CC2)ONC2=NCCN23)cc1`, the GI50 in assay [1] is 71.3 µM; in assay [2], 88.4 µM; in [10], more than 100 µM; in [3], 18.2 µM; in assay [4], 60.1 µM; in assay [6], more than 100 µM. For the same compound, the GI50 in assay [7] is 30.5 µM; in assay [8] it was 61.4 µM; in assay [9], 19.5 µM. Also, the TGI in [1], in [2], in [10], in assay [3], in assay [4] and in assay [6] was more than 100 µM in each case. The TGI is more than 100 µM in assay [7], more than 100 µM in assay [8] and 87.3 µM in assay [9].
Regarding `COc1cc2c(c(OC)c1OC)C(=O)c1c-2n(CCCN)c(=O)c2cc([N+](=O)[O-])ccc12`, the GI50 in [1] is 0.25 µM; in [10] it was 1.41 µM; in [3], 2.03 µM; in [5], 0.299 µM; in assay [6], 1.5 µM; in assay [7], 0.535 µM. The GI50 in assay [8] was 0.301 µM; in assay [9] it was 1.06 µM. The TGI in assay [10] came out at 2.99 µM; in assay [3], 9.98 µM; in assay [5], 0.804 µM; in assay [6], 5.15 µM; in assay [7], 2.24 µM; in assay [9] it was 2.4 µM.
Take `COc1ncnc2c1ncn2C/C(Br)=C(\Br)CCl`: the GI50 is 1.43 µM in assay [1]; 10.8 µM in assay [2]; 6.12 µM in assay [3]; 1.74 µM in [4]; 17.2 µM in [5]; 12.1 µM in assay [6]. For the same compound, the figures for the GI50 in assay [7], in assay [8] and in [9] were 1.87 µM, 1.63 µM and 1.77 µM, respectively. The TGI in assay [1] is 3.06 µM; in assay [2], 25.9 µM; in assay [3] it was 18.9 µM; in [4], 3.64 µM; in assay [5] it was 31.2 µM; in [6], 24.5 µM. The values for the TGI in assay [7], in assay [8] and in [9] were 3.87 µM, 3.71 µM and 3.22 µM, respectively.
Turning to `COc1ccc(/C=C2/CCOC2=O)cc1`, the GI50 in assay [1] was more than 100 µM; in [2], more than 100 µM; in [10], 14.9 µM; in assay [3] it was more than 100 µM; in assay [4], more than 100 µM; in assay [6], more than 100 µM. Further, the GI50 in assay [8] and in assay [9] was more than 100 µM each time. In addition, the TGI in [1], in [2], in assay [10], in assay [3], in assay [4] and in assay [6] was more than 100 µM in each case. The TGI in assay [8] and in assay [9] was more than 100 µM in each case.
